The record followed here is patent publication US20040006236A1, “Diaminopropionic acid derivatives” (priority 1999, published 2004).

pIC50: −log10 of the molar value.

The experiment deals with T1, LFA-1 binding to immobilized ICAM-1 (Homo sapiens, UniProt P05107+P20701).
T1 construct: made in house; host or cells: transfected 293 cells (LFA-1)
T1 sequence (P20701 26-1170): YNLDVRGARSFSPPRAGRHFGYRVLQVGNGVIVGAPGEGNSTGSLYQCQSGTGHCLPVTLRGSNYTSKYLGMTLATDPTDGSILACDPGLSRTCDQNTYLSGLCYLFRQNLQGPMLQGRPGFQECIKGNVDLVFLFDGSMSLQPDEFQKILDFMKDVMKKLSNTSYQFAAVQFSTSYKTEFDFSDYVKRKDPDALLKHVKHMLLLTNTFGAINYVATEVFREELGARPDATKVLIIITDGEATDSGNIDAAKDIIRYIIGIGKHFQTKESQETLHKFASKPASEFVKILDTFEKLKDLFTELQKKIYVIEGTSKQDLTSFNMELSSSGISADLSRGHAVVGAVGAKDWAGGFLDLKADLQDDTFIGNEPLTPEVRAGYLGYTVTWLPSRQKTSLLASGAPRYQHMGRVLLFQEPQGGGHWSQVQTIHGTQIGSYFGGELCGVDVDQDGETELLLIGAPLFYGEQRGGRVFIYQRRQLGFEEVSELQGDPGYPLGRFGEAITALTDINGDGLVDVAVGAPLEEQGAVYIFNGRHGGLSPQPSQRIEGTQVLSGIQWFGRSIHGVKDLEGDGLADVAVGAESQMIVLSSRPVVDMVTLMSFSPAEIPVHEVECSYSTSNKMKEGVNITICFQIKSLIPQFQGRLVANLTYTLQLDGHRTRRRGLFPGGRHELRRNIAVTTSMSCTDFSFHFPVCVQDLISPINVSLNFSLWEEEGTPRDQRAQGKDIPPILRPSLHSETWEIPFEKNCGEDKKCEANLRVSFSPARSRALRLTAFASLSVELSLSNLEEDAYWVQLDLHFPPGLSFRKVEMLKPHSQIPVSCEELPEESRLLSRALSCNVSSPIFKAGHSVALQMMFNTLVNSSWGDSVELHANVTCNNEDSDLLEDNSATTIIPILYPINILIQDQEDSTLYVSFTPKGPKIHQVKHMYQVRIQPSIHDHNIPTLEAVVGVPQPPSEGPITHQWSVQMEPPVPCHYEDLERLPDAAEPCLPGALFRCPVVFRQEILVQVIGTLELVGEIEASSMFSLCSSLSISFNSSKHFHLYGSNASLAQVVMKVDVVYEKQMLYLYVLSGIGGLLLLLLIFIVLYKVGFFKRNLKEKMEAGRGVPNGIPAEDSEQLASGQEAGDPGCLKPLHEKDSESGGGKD
T1 sequence (P05107 23-769): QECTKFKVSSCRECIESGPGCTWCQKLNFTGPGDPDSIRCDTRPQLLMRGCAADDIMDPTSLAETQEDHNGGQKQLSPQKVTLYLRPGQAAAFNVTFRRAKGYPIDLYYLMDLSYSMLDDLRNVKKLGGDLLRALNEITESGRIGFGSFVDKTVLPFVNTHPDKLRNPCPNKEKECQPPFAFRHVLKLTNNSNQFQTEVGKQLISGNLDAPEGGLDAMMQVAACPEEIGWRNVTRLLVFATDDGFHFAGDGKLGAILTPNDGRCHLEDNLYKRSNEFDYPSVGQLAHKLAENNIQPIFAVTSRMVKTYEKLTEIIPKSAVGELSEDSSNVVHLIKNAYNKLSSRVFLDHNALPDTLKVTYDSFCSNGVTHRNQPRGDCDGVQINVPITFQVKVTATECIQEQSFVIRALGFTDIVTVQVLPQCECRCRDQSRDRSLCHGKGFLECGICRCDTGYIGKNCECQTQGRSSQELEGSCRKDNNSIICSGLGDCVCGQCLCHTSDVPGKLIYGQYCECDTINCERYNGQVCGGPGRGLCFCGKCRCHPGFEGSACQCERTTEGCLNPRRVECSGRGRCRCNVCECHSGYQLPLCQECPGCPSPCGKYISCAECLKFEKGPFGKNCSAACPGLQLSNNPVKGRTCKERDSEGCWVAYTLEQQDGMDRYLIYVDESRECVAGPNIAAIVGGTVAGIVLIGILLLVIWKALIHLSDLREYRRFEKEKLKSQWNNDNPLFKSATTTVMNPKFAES
The experiment in a line: LFA-1/ICAM-1 protein-protein assay (solid-phase ELISA). To be noted: read-out: LFA-1/ICAM-1 Protein-Protein Assay IC50. The procedure, abridged:
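Human 5dICAM-Ig (ICAM-1 extracellular domain–IgG Fc) coated on plates; membrane-bound LFA-1 from transfected 293 cells (280 ng/mL) added with compound in Mn2+-containing HEPES buffer pH 7.2, 2 h at 37° C. Bound LFA-1 detected via anti-β2 antibody and HRP/TMB at 450 nm; IC50s determined.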
Background: An ELISA detects its analyte on a solid surface through an enzyme-linked reagent.
`O=C(NCc1cccc(O)c1)c1ccc(C(=O)N[C@@H](CNC(=O)c2ccc(Cl)s2)C(=O)O)c(Cl)c1` [Example 157]: the pIC50 was 8.92.

In the case of `O=C(/C=C/c1cccs1)NC[C@H](NC(=O)c1ccc(C(=O)NCc2cccc(O)c2)cc1Cl)C(=O)O` [Example 116], the pIC50 was 8.74.

As for `Cc1noc(C)c1C(=O)NC[C@H](NC(=O)c1ccc(C(=O)NCc2cccc(O)c2)cc1Cl)C(=O)O` [Example 153], the pIC50 was 8.11.

Take `O=C(NCc1cccc(O)c1)c1ccc(C(=O)N[C@@H](CNC(=O)c2ccc(Cl)cc2)C(=O)O)c(Cl)c1` [Example 124]: the pIC50 is 8.48.

For `O=C(NCc1cccc(O)c1)c1ccc(C(=O)N[C@@H](CNC(=O)C2CCCC2)C(=O)O)c(Cl)c1` [Example 101], the pIC50 was 8.72.

As to `O=C(NCc1cccc(O)c1)c1ccc(C(=O)N[C@@H](CNC(=O)c2ccc(Br)o2)C(=O)O)c(Cl)c1` [Example 150], the pIC50 is 8.60.

With `O=C(NCc1cccc(O)c1)c1ccc(C(=O)N[C@@H](CNC(=O)C2(c3ccccc3)CCCC2)C(=O)O)c(Cl)c1` [Example 103], the pIC50 was 8.80.

For `O=C(NCc1cccc(O)c1)c1ccc(C(=O)N[C@@H](CNC(=O)c2sccc2Cl)C(=O)O)c(Cl)c1` [Example 156], the pIC50 is 9.00.

Turning to `O=C(NCc1cccc(O)c1)c1ccc(C(=O)N[C@@H](CNC(=O)c2ccccc2[N+](=O)[O-])C(=O)O)c(Cl)c1` [Example 140], the pIC50 is 8.74.

As for `O=C(NCc1cccc(O)c1)c1cc(Cl)c(C(=O)N[C@@H](CNC(=O)c2cccc(O)c2)C(=O)O)c(Cl)c1` [Example 350], the pIC50 was 9.00.

For `C[C@@H](NC(=O)c1cc(Cl)c(C(=O)N[C@@H](CNC(=O)c2ccccc2)C(=O)O)c(Cl)c1)c1cccc2ccccc12` [Example 347], the pIC50 was 8.47.

On to `O=C1CC[C@@H](C(=O)NC[C@H](NC(=O)c2ccc(C(=O)NCc3cccc(O)c3)cc2Cl)C(=O)O)O1` [Example 96], for which the pIC50 is 8.51.

As for `CC1(C(=O)NC[C@H](NC(=O)c2ccc(C(=O)NCc3cccc(O)c3)cc2Cl)C(=O)O)CCCCC1` [Example 105], the pIC50 was 8.72.

`O=C(NCc1ccc(C(=O)N[C@@H](CNC(=O)c2ccccc2)C(=O)O)c(Cl)c1)c1ccc2cc[nH]c2c1` [Example 369]: the pIC50 is 8.07.

For `O=C(NCc1cccc(O)c1)c1ccc(C(=O)N[C@@H](CNC(=O)c2cccc(O)c2)C(=O)O)c(Cl)c1` [Example 132], the pIC50 was 9.22.

As to `O=C(NCc1cccc(O)c1)c1ccc(C(=O)N[C@@H](CNC(=O)c2cccc([N+](=O)[O-])c2)C(=O)O)c(Cl)c1` [Example 141], the pIC50 is 8.72.

For the molecule `O=C(NCc1cccc(O)c1)c1ccc(C(=O)N[C@@H](CNC(=O)[C@H](CC2CCCCC2)n2cccc2)C(=O)O)c(Cl)c1` [Example 110], the pIC50 was 8.43.

Consider `O=C(/C=C/c1cccnc1)NC[C@H](NC(=O)c1ccc(C(=O)NCc2cccc(O)c2)cc1Cl)C(=O)O` [Example 115], for which the pIC50 is 8.66.

Consider `COc1cccc(C(=O)NC[C@H](NC(=O)c2ccc(C(=O)NCc3cccc(O)c3)cc2Cl)C(=O)O)c1` [Example 76, N-[2-chloro-4-[[[(3-hydroxyphenyl)methyl]amino]-carbonyl]benzoyl]-3-(3-methoxybenzoylamino)-L-alanine], for which the pIC50 was 8.92.

Consider `O=C(NCc1cccc(O)c1)c1ccc(C(=O)N[C@@H](CNC(=O)c2ccsc2)C(=O)O)c(Cl)c1` [Example 161], for which the pIC50 is 9.00.

As for `O=C(NCc1cccc(O)c1)c1ccc(C(=O)N[C@@H](CNC(=O)c2ccccc2Cl)C(=O)O)c(Cl)c1` [Example 122], the pIC50 was 8.55.

As for `Cc1ccsc1C(=O)NC[C@H](NC(=O)c1ccc(C(=O)NCc2cccc(O)c2)cc1Cl)C(=O)O` [Example 159], the pIC50 was 9.05.

Consider `Cc1cccc(C(=O)NC[C@H](NC(=O)c2ccc(C(=O)NCc3cccc(O)c3)cc2Cl)C(=O)O)n1` [Example 163], for which the pIC50 is 8.49.

Take `NS(=O)(=O)c1ccc(C(=O)NC[C@H](NC(=O)c2ccc(C(=O)NCc3cccc(O)c3)cc2Cl)C(=O)O)cc1` [Example 119]: the pIC50 was 8.52.

Turning to `O=C(NCc1cccc(O)c1)c1ccc(C(=O)N[C@@H](CNC(=O)c2cccc(Br)c2)C(=O)O)c(Cl)c1` [Example 121], the pIC50 is 8.80.

Regarding `O=C(NCc1ccc(C(=O)N[C@@H](CNC(=O)c2ccccc2)C(=O)O)c(Cl)c1)c1cc(O)cc(O)c1` [Example 366], the pIC50 is 8.47.

Turning to `COc1ccc(C(=O)NC[C@H](NC(=O)c2ccc(C(=O)NCc3cccc(O)c3)cc2Cl)C(=O)O)cc1` [Example 135], the pIC50 was 8.20.

Turning to `O=C(NCc1cccc(O)c1)c1ccc(C(=O)N[C@@H](CNC(=O)c2ccccc2Br)C(=O)O)c(Cl)c1` [Example 120], the pIC50 was 8.31.

With `N#Cc1cccc(C(=O)NC[C@H](NC(=O)c2ccc(C(=O)NCc3cccc(O)c3)cc2Cl)C(=O)O)c1` [Example 126], the pIC50 is 8.92.

As for `O=C(NCc1cccc(O)c1)c1ccc(C(=O)N[C@@H](CNC(=O)c2ccco2)C(=O)O)c(Cl)c1` [Example 148], the pIC50 was 8.85.

Turning to `Cc1ccc(C(=O)NC[C@H](NC(=O)c2c(Cl)cc(C(=O)NCc3cccc(O)c3)cc2Cl)C(=O)O)s1` [Example 358], the pIC50 was 9.70.

For the molecule `O=C(NCc1cccc(O)c1)c1ccc(C(=O)N[C@@H](CNC(=O)C2CC2)C(=O)O)c(Cl)c1` [Example 97], the pIC50 is 8.72.

For the molecule `COc1ccccc1C(=O)NC[C@H](NC(=O)c1ccc(C(=O)NCc2cccc(O)c2)cc1Cl)C(=O)O` [Example 134], the pIC50 is 8.68.

Consider `O=C(NCc1cccc(O)c1)c1ccc(C(=O)N[C@@H](CNC(=O)c2ccc[nH]2)C(=O)O)c(Cl)c1` [Example 151], for which the pIC50 is 8.55.

On to `O=C(NCc1cccc(O)c1)c1cc(Cl)c(C(=O)N[C@@H](CNC(=O)c2cccc(F)c2)C(=O)O)c(Cl)c1` [Example 349], for which the pIC50 was 8.96.

With `Nc1cccc(C(=O)NC[C@H](NC(=O)c2ccc(C(=O)NCc3cccc(O)c3)cc2Cl)C(=O)O)c1` [Example 118], the pIC50 is 8.72.

Take `CC(=O)Oc1ccccc1C(=O)NC[C@H](NC(=O)c1ccc(C(=O)NCc2cccc(O)c2)cc1Cl)C(=O)O` [Example 117]: the pIC50 was 8.44.

In the case of `O=C(NCc1cccc(O)c1)c1cc(Cl)c(C(=O)N[C@@H](CNC(=O)c2ccc(Br)s2)C(=O)O)c(Cl)c1` [Example 354], the pIC50 was 9.00.

Consider `O=C(NCc1cccc(O)c1)c1ccc(C(=O)N[C@@H](CNC(=O)c2cccc(C(F)(F)F)c2)C(=O)O)c(Cl)c1` [Example 146], for which the pIC50 is 8.59.

Take `O=C(NCc1ccc(C(=O)N[C@@H](CNC(=O)c2ccccc2)C(=O)O)c(Cl)c1)c1ccc2[nH]ccc2c1` [Example 368]: the pIC50 was 7.96.
